In patent US20160067265A1, “Abiraterone Acetate Formulation” (ICEUTICA INC., priority 2013, published 2016):
One block for each compound: values may come before it.

Assays:
[1] = Accelerated stability, 4 hrs at 80° C., total impurities; settings: after 4 hours at 80° C.
Experimental: As part of the analysis of impurity growth, the impact on impurity level of various excipients useful for tablet preparation was examined by blending the DPI with various excipients and heating for 4 hours at 80° C.

[2] = Particle size analysis (Malvern Mastersizer 3000), Example 4; type: physicochemical; settings: volume statistics, in 0.1% PVP
Experimental: This cycle was continued until the total sonication time reached one minute. […] The sample was then allowed to stir for 5 minutes prior to taking measurements. Data from the final measurements are presented in Table 1 and depicted graphically in FIG. 3. For comparison, the particle size distribution of unmilled abiraterone acetate (raw drug substance) was also determined. […] The sample was then allowed to stir for 5 minutes prior to taking measurements. The data from these measurements are presented in Table 1 and depicted graphically in FIG. 3. […] No fine particle abiraterone acetate was measured in the unmilled drug sample. [table]

[3] = Comparative capsule dissolution, 10 mmol phosphate buffer pH 6 with 0.1% SDS, Example 2; type: physicochemical; settings: pH 6 phosphate buffer, 37° C.
Experimental: Also, 250 mg of unmilled abiraterone acetate was hand filled into similar capsules. Dissolution profiles were measured in triplicate using a Varian VK7025 dissolution apparatus fitted with (6) 1000 mL vessels, with detection performed in a Varian UV-Vis Spectrophotometer at 270 nm. Each vessel contained 900 mL dissolution media consisting of 10 mmol phosphate buffer at pH 6 with 0.1% SDS added. Experiments were conducted at 37° C. The hard gelatin capsules were fitted inside spiral sinkers before commencing the dissolution experiments.

[4] = Particle size distribution by light scattering (Malvern Mastersizer 2000), Example 1; type: physicochemical; settings: volume statistics
Excerpt: Abiraterone acetate drug substance was obtained from Hangzhao Dayangchem Co., Ltd.; Hangzhao City, P.R. China.

degradation [1]: essentially no degradation
Structure (SMILES): CC(=O)O[C@H]1CC[C@@]2(C)C(=CC[C@@H]3[C@@H]2CC[C@]2(C)C(c4cccnc4)=CC[C@@H]32)C1 [API prior to size reduction, Abiraterone acetate]

D4,3 [2]: 28.1 μm | D10 [2]: 8.18 μm | D50 [2]: 21.8 μm | D90 [2]: 47.3 μm
Structure (SMILES): CC(=O)O[C@H]1CC[C@@]2(C)C(=CC[C@@H]3[C@@H]2CC[C@]2(C)C(c4cccnc4)=CC[C@@H]32)C1 [Unmilled, Abiraterone acetate]

% dissolved after one hour [3]: approximately 10% | D10 [4]: 16 μm | D50 [4]: 37 μm | D90 [4]: 70 μm | average particle size [4]: approximately 40 μm
Structure (SMILES): CC(=O)O[C@H]1CC[C@@]2(C)C(=CC[C@@H]3[C@@H]2CC[C@]2(C)C(c4cccnc4)=CC[C@@H]32)C1 [unmilled abiraterone acetate, Abiraterone acetate]
